Results taken from the SangsterLogP compilation.

Experiment: from Draber, W.; Büchel, H.; Dickore, K.; Trebst, A.; Pistorius, E. (1969). Structure-activity correlation of 1,2,4-triazinones, a new group of photosynthesis inhibitors. In: Progress in Photosynthesis …
Details: pH 7.0
With `CC(C)c1nnc(SCC(=O)c2ccccc2)n(N)c1=O` the logD was 2.07.
For `CSc1nnc(C(C)(C)C)c(=O)n1N`, the logD was 1.7.
For `CSc1nnc(CCC(C)C)c(=O)n1N`, the logD was 1.85.
Work on `CSc1nnc(-c2ccccc2)c(=O)n1N` yielded a logD of 1.66.
`CCc1nnc(SC)n(N)c1=O` showed a logD of 0.46.
Compound `CC(C)Sc1nnc(C(C)C)c(=O)n1N` has a logD of 2.06.
With `CCSc1nnc(C(C)C)c(=O)n1N` the logD was 1.52.
For `CCCCCCc1nnc(SC)n(N)c1=O`, the logD was 2.68.
For `CCCSc1nnc(C(C)C)c(=O)n1N`, the logD was 2.12.
In the case of `COc1nnc(C(C)C)c(=O)n1N`, the logD was -0.06.
`CC(C)c1nnc(N2CCOCC2)n(N)c1=O` gave a logD of 0.49.
In the case of `CNc1nnc(C(C)C)c(=O)n1N`, the logD was 0.3.
With `CSc1nncc(=O)n1N` the logD was 0.38.
`CSc1nnc(C2CCCCO2)c(=O)n1N` (stereo not given) gave a logD of 0.38.
Compound `CCCCNc1nnc(C(C)C)c(=O)n1N` has a logD of 1.78.
